Measurements published in patent US11858946B2, “Small molecules active against gram-negative bacteria” (The Board of Trustees of the University of Illinois, priority 2016, dated 2024).
Converted amounts (≈) assume the structure as drawn. Read-outs that look alike come from different tables or passages of the source.

How the values were obtained:
[1] = system: E. coli MG1655; assay: Antibiotic susceptibility test (microdilution broth), E. coli MG1655; format: cell-based, Escherichia coli; conditions: for MIC: Escherichia coli
Method: (§1) 6DNM and its derivatives were further evaluated against an expanded panel of Gram-negative pathogens, laboratory strains and clinical isolates of ESKAPE pathogens E. coli, Acinetobacter baumannii, Klebsiella pneumoniae, Enterobacter cloacae, and Pseudomonas aeruginosa (Table 1 of FIG. 19).
(§2) Susceptibility testing was performed in triplicate, using the microdilution broth method as outlined by the Clinical and Laboratory Standards Institute. Mueller Hinton (MH) broth was used.

[2] = system: E. coli (ATCC BAA-2469); assay: Antibiotic susceptibility test (microdilution broth), NDM-1 producing E. coli clinical isolate; format: cell-based; conditions: Escherichia coli, ATCCBAA2469, read-out: MIC against multi-drug resistant NDM-1 producing E. coli ATCC BAA-2469
Method: as §1, §2

[3] = system: E. coli MG1655; assay: Accumulation assay in whole-cell E. coli, LC-MS/MS quantification; conditions: for accumulation in E. coli: E. coli MG1655 whole cells, 37° C., LC-MS/MS; for accumulation in E. coli / accumulation in E. coli (in words): 50 μM compound, 10 minutes; for accumulation in E. coli (in words): E. coli whole cells; for accumulation upon co-treatment with colistin: E. coli, 6.0 μM colistin sulfate added before compound
Description: Antimicrob. Agents Chemother. 36, 2622-2627, (1992); Davis, T. D., Gerry, C. J. & Tan, D. S. General platform for systematic quantitative evaluation of small-molecule permeability in bacteria. ACS Chem. Biol. 9, 2535-2544, (2014); and Cai, H., Rose, K., Liang, L. H., Dunham, S. & Stover, C. Development of a liquid chromatography/mass spectrometry-based drug accumulation assay in Pseudomonas aeruginosa. Anal. Biochem. 385, 321-325, (2009); with LC-MS/MS used to quantify the accumulation of each compound. E. coli MG1655 was utilized for these experiments as this strain has been only minimally altered from its K-12 progenitor. To ensure the assay was reporting on compound accumulation, as opposed to non-specific affinity for the outer membrane, several control experiments were conducted. The assay method was evaluated with antibiotics that have known high or low levels of accumulation, based on published accumulation data and antibacterial activity against E. coli. […] Colistin is known to potentiate the activity of low-accumulating antibiotics by aiding the diffusion of lipophilic compounds across the membrane.
For each replicate, 2.5 mL of an overnight culture of E. coli was diluted into 250 mL of fresh Luria Bertani (LB) broth (Lennox) and grown at 37° C. with shaking to an OD600=0.55. The bacteria were pelleted at 3,220 rcf for 10 minutes at 4° C. and the supernatant was discarded. The pellets were re-suspended in 40 mL of phosphate buffered saline (PBS) and pelleted as before, and the supernatant was discarded. The pellets were re-suspended in 8.8 mL of fresh PBS and aliquoted into ten 1.5 mL eppendorf tubes (875 μL each). The number of colony forming units (CFUs) was determined via a calibration curve. The samples were equilibrated at 37° C. with shaking for 5 minutes, compound was added ([final]=50 μM), and then samples were incubated at 37° C. with shaking for 10 minutes. […] After incubation, 800 μL of the cultures were carefully layered on 700 μL of silicone oil (9:1 AR20/Sigma High Temperature, cooled to −78° C.). Bacteria were pelleted through the oil by centrifuging at 13,000 rcf for 2 minutes at room temperature (supernatant remains above the oil); the supernatant and oil were then removed by pipetting. To lyse the samples, each pellet was dissolved in 200 μL of water, and then they were subjected to three freeze-thaw cycle of three minutes in liquid nitrogen followed by three minutes in a water bath at 65° C. The lysates were pelleted at 13,000 rcf for 2 minutes at room temperature and the supernatant was collected (180 μL). The debris was re-suspended in 100 μL of methanol and pelleted as before. The supernatants were removed and combined with the previous supernatants collected. Finally, remaining debris was removed by centrifuging at 20,000 rcf for 10 minutes at room temperature. Supernatants were analyzed by LC-MS/MS.
Samples were analyzed with the 5500 QTRAP LC/MS/MS system (AB Sciex, Foster City, CA) with a 1200 series HPLC system (Agilent Technologies, Santa Clara, CA) including a degasser, an autosampler, and a binary pump. The LC separation was performed on an Agilent SB-Aq column (4.6×50 mm, 5 μm) (Agilent Technologies, Santa Clara, CA) with mobile phase A (0.1% formic acid in water) and mobile phase B (0.1% formic acid in acetonitrile). The flow rate was 0.3 mL/min. The linear gradient was as follows: 0-3 min, 100% A; 10-15 min, 2% A; 15.5-21 min, 100% A. The autosampler was set at 5° C. The injection volume was 15 μL. Mass spectra were acquired with both positive electrospray ionization (ESI) at the ion spray voltage of 5500 V and negative ESI at the ion spray voltage of −4500 V. The source temperature was 450° C. The curtain gas, ion source gas 1, and ion source gas 2 were 33, 50, and 65, respectively.

[4] = system: ΔompR strain of E. coli (OmpF and OmpC knockout) vs parental E. coli BW25113
Description: A ΔompR strain of E. coli from the KEIO knockout collection was therefore chosen to effectively knockout both OmpF and OmpC (knockout was validated by analyzing the outer membrane proteins of the ΔompR strain compared to the parental strain, data not shown).

[5] = system: E. coli, Acinetobacter baumannii, Klebsiella pneumoniae, Enterobacter cloacae, and Pseudomonas aeruginosa; assay: Antibiotic susceptibility test (microdilution broth), expanded panel of Gram-negative pathogens; format: cell-based; conditions: for activity against expanded panel of Gram-negative pathogens (in words): laboratory strains and clinical isolates of ESKAPE pathogens
Method: as §1, §2

[6] = system: Staphylococcus aureus; assay: Antibiotic susceptibility test (microdilution broth), S. aureus; format: cell-based

## Cc1cc(=O)n(C)c2c3c4c(cc12)c(C)cc(=O)n4C(CN)CO3 (centres unmarked) [Compound 6DNM-NH3]
[1]; MG1655, microdilution broth, MH broth, read-out: MIC against E. coli MG1655
  MIC: 0.5 µg/mL (≈ 1.54 µM)
[2]
  MIC: 4 µg/mL (≈ 12.3 µM)
[3]
  accumulation in E. coli: 1114 nmol/10^12 CFUs
[4]
  accumulation in ΔompR strain compared to parental/WT strain: decrease in accumulation
[5]; clinical isolates
  activity against other clinical isolates of E. coli, A. baumannii, K. pneumonia, and E. cloacae (in words): good activity against most of the other clinical isolates
[5]
  activity against expanded panel of Gram-negative pathogens (in words): antibacterial activity against all of these Gram-negative pathogens except P. aeruginosa
[6]
  activity against S. aureus (in words): retains activity

## Cc1cc(=O)n(C)c2c3c4c(cc12)c(C)cc(=O)n4C(CC(=O)O)CO3 (centres unmarked) [Compound 6DNM-acid]
[1]
  activity against E. coli (in words): no activity
[3]
  accumulation in E. coli (in words): do not accumulate

## CC(=O)NCC1COc2c3c(cc4c(C)cc(=O)n1c24)c(C)cc(=O)n3C (centres unmarked) [Compound 6DNM-amide]
[1]
  activity against E. coli (in words): no activity
[3]
  accumulation in E. coli (in words): do not accumulate

## Cc1cc(=O)n(C)c2c3c4c(cc12)c(C)cc(=O)n4CCO3 [Compound 6DNM]
[1]; MG1655, read-out: MIC versus E. coli
  MIC: > 32 µg/mL
[3]
  accumulation in E. coli: 298 nmol/10^12 CFUs
[5]
  activity against expanded panel of Gram-negative pathogens (in words): no notable activity
[6]; Staphylococcus aureus, microdilution broth, MH broth, read-out: MIC against Staphylococcus aureus
  MIC: 0.06 to 1 µg/mL (≈ 0.202 to 3.37 µM)

## NC1COC2C(O)COC12 (centres unmarked) [Compound 20, mono-amine isomannide]
[3]
  accumulation in E. coli (in words): does not accumulate

## O=C(O)c1cn(C2CC2)c2cc(N3CCNCC3)c(F)cc2c1=O [ciprofloxacin, reference compound]
[3]; treatment for 10 minutes, 50 μM
  reduction of CFUs during accumulation assay (factor): five
[4]
  accumulation in ΔompR strain compared to parental/WT strain: significant decrease in accumulation

## CO[C@@H]1[C@@H](OC(N)=O)[C@@H](O)[C@H](Oc2ccc3c(O)c(NC(=O)c4ccc(O)c(CC=C(C)C)c4)c(=O)oc3c2C)OC1(C)C [novobiocin, reference compound]
[3]
  accumulation upon co-treatment with colistin: increase in accumulation

## CO[C@H]1/C=C/O[C@@]2(C)Oc3c(C)c(O)c4c(O)c(c(/C=N/N5CCN(C)CC5)c(O)c4c3C2=O)NC(=O)/C(C)=C\C=C\[C@H](C)[C@H](O)[C@@H](C)[C@@H](O)[C@@H](C)[C@H](OC(C)=O)[C@@H]1C [rifampicin, reference compound]
[3]
  accumulation upon co-treatment with colistin: increase in accumulation
